# Laboratory results taken from patent publication US11219621B2, “Methods for treating immunodeficiency disease” (X4 Pharmaceuticals, Inc., priority 2015, dated 2022).
# Experiments:
# [1] = system: granulocyte-macrophage (CFU-GM), erythroid (BFU-E) and multipotential (CFU-GEMM) progenitor cells; test: Progenitor/stem cell mobilization in mice after single subcutaneous injection; assay type: in vivo, C3H/HeJ mice; conditions: for BFU (BFU-E), Mean / GEMM (CFU-GEMM), Mean / GM (CFU-GM), Mean: progenitor cells per mL of blood
# Procedure: All experiments were performed in […] mice. […] The progenitors were stimulated to form colonies in vitro with the combination of 1 U/mL rhu EPO, 50 ng/mL rmu SLF, 5% vol/vol pokeweed mitogen mouse spleen cell conditioned medium (PWMSCM), and 0.1 mM hemin. Plates were scored 7 days after incubation at 37° C., 5% CO2, lowered […] and in a humidified chamber.
# In the first experiment (data shown in Table 6), mice received a dose of 5 mg/kg- and the number of progenitors in the circulating blood was measured at various time points (0.25, 0.5, 1, 2, 6 and 24 hours).
# [2] = target: CXCR4 (Homo sapiens, UniProt P61073); conditions: SDF-1α dose/response in calcium flux assay with increasing amounts of X4P-001; cited from earlier work
# [3] = target: T1, CXCR3 (Homo sapiens, UniProt P49682); conditions: cited from earlier work
# T1 construct: expressed in transfected cells
# T1 sequence (P49682 1-368): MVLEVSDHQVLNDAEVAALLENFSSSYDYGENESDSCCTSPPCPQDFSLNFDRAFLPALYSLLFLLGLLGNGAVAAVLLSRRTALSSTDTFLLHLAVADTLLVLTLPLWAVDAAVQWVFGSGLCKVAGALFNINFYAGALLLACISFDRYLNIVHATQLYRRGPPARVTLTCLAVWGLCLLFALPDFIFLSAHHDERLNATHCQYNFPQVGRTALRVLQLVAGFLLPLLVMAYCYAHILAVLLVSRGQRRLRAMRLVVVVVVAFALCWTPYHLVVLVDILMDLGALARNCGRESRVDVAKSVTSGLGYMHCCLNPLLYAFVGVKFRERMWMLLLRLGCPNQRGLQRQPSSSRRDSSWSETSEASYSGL
# [4] = target: T2, CCR4 (Homo sapiens, UniProt P51679); conditions: cited from earlier work
# T2 construct: expressed in transfected cells
# T2 sequence (P51679 1-360): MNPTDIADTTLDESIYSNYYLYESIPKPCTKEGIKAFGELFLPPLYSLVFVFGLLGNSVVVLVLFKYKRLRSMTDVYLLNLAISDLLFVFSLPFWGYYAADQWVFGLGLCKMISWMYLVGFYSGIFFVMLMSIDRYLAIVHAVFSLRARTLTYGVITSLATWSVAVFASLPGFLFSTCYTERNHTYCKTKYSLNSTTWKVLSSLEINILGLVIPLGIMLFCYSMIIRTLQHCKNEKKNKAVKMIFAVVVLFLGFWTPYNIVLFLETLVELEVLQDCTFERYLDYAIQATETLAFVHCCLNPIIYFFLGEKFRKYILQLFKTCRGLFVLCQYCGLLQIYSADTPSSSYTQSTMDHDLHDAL
# [5] = target: T3, CCR7 (Homo sapiens, UniProt P32248); conditions: cited from earlier work
# T3 construct: endogenous in cells
# T3 sequence (P32248 25-378): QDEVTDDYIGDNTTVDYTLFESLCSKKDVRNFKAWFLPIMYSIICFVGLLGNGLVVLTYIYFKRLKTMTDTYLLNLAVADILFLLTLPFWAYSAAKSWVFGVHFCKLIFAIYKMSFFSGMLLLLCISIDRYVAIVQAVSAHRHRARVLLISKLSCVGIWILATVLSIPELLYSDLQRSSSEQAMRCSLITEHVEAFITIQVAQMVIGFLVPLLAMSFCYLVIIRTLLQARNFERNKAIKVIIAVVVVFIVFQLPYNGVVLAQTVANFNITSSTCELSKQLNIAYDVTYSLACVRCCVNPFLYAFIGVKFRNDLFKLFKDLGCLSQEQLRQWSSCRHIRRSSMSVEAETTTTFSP
# [6] = system: granulocyte-macrophage (CFU-GM), erythroid (BFU-E) and multipotential (CFU-GEMM) progenitor cells; test: Progenitor/stem cell mobilization in mice after single subcutaneous injection; assay type: in vivo, C3H/HeJ mice
# [7] = Table 6, 5 mg/kg s.c., @ - 2′ (2 h)
# [8] = Table 6, 5 mg/kg s.c., @ - 6′ (6 h)
# [9] = Table 6, 5 mg/kg s.c., @ - 15″ ([…])
# [10] = Table 6, 5 mg/kg s.c., @ - 24′ (24 h)
# [11] = Table 6, 5 mg/kg s.c., @ - 30″ (0.5 h)
# [12] = Table 6, 5 mg/kg s.c., @ - 60″ (1 h)
# [13] = Table 7, 1 hour post-injection, 1.5 mg/kg s.c.
# [14] = Table 7, 1 hour post-injection, 5 mg/kg s.c.
# [15] = Table 7, 1 hour post-injection, 10 mg/kg s.c.
# [16] = Table 7, 1 hour post-injection, 20 mg/kg s.c.
# [17] = Table 8, 5 mg/kg s.c., @ - 2′ (2 h)
# [18] = Table 8, 5 mg/kg s.c., @ - 15″ ([…])
# [19] = Table 8, 5 mg/kg s.c., @ - 30″ (0.5 h)
# [20] = Table 8, 5 mg/kg s.c., @ - 60″ (1 h)
# [21] = time course, 5 mg/kg s.c., 30-60 min.
# Chain of CXCR4 (P61073 whole entry): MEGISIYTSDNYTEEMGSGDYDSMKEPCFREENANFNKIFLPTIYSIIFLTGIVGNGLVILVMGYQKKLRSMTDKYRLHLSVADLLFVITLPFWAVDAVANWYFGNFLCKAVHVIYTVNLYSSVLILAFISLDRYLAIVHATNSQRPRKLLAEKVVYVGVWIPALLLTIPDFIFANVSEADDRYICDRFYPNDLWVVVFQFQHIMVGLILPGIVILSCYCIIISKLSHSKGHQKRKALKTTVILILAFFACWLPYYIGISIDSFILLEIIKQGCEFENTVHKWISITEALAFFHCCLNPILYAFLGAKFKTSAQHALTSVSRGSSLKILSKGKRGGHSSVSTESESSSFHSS
smiles,measurement,setting,value
NCCCCN(Cc1nc2ccccc2[nH]1)[C@H]1CCCc2cccnc21 [X4P-001],"BFU (BFU-E), Mean",[1]; [7],165.3
same,"GEMM (CFU-GEMM), Mean",[1]; [7],68.9
same,"GM (CFU-GM), Mean",[1]; [7],897.5
same,"BFU (BFU-E), Mean",[1]; [8],99.9
same,"GEMM (CFU-GEMM), Mean",[1]; [8],37.6
same,"GM (CFU-GM), Mean",[1]; [8],387.5
same,"BFU (BFU-E), Mean",[1]; [9],148.8
same,"GEMM (CFU-GEMM), Mean",[1]; [9],65.6
same,"GM (CFU-GM), Mean",[1]; [9],785.1
same,"BFU (BFU-E), Mean",[1]; [10],84.6
same,"GEMM (CFU-GEMM), Mean",[1]; [10],37.7
same,"GM (CFU-GM), Mean",[1]; [10],386.3
same,"BFU (BFU-E), Mean",[1]; [11],230.4
same,"GEMM (CFU-GEMM), Mean",[1]; [11],99.6
same,"GM (CFU-GM), Mean",[1]; [11],1273.8
same,"BFU (BFU-E), Mean",[1]; [12],235.1
same,"GEMM (CFU-GEMM), Mean",[1]; [12],103.1
same,"GM (CFU-GM), Mean",[1]; [12],866.0
same,"Nucleated Cellularity PBL-LD, Mean","[1]; Table 6 time course, 5 mg/kg s.c., @ - 2′ (2 h)",8.29e+06 mL⁻¹
same,"Nucleated Cellularity PBL-LD, Mean","[1]; Table 6 time course, 5 mg/kg s.c., @ - 6′ (6 h)",5.66e+06 mL⁻¹
same,"Nucleated Cellularity PBL-LD, Mean","[1]; Table 6 time course, 5 mg/kg s.c., @ - 15″ ([…])",5.1e+06 mL⁻¹
same,"Nucleated Cellularity PBL-LD, Mean","[1]; Table 6 time course, 5 mg/kg s.c., @ - 24′ (24 h)",4.31e+06 mL⁻¹
same,"Nucleated Cellularity PBL-LD, Mean","[1]; Table 6 time course, 5 mg/kg s.c., @ - 30″ (0.5 h)",6.14e+06 mL⁻¹
same,"Nucleated Cellularity PBL-LD, Mean","[1]; Table 6 time course, 5 mg/kg s.c., @ - 60″ (1 h)",6.92e+06 mL⁻¹
same,"BFU (BFU-E), Mean",[1]; [13],143.8
same,"GM (CFU-GM), Mean",[1]; [13],428.0
same,"BFU (BFU-E), Mean",[1]; [14],181.6
same,"GEMM (CFU-GEMM), Mean",[1]; [14],141.0
same,"GM (CFU-GM), Mean",[1]; [14],1119.8
same,"GEMM (CFU-GEMM), Mean",[1]; [15],224.4
same,"GM (CFU-GM), Mean",[1]; [15],1444.2
same,"BFU (BFU-E), Mean",[1]; [16],261.4
same,"GEMM (CFU-GEMM), Mean",[1]; [16],145.0
same,"GM (CFU-GM), Mean",[1]; [16],1314.2
same,"Nucleated Cellularity PBL-LD, Mean","[1]; Table 7 dose response, 1 hour post-injection, 1.5 mg/kg s.c.",6.94e+06 mL⁻¹
same,"Nucleated Cellularity PBL-LD, Mean","[1]; Table 7 dose response, 1 hour post-injection, 5 mg/kg s.c.",7.65e+06 mL⁻¹
same,"Nucleated Cellularity PBL-LD, Mean","[1]; Table 7 dose response, 1 hour post-injection, 10 mg/kg s.c.",9.94e+06 mL⁻¹
same,"BFU (BFU-E), Mean",[1]; [17],108.5
same,"GEMM (CFU-GEMM), Mean",[1]; [17],62.4
same,"GM (CFU-GM), Mean",[1]; [17],619.6
same,"BFU (BFU-E), Mean",[1]; [18],188.9
same,"GEMM (CFU-GEMM), Mean",[1]; [18],93.8
same,"GM (CFU-GM), Mean",[1]; [18],588.3
same,"GEMM (CFU-GEMM), Mean",[1]; [19],79.0
same,"GM (CFU-GM), Mean",[1]; [19],705.9
same,"GEMM (CFU-GEMM), Mean",[1]; [20],102.2
same,"GM (CFU-GM), Mean",[1]; [20],761.4
same,"Nucleated Cellularity PBL-LD, Mean","[1]; Table 8 comparison, 5 mg/kg s.c., @ - 2′ (2 h)",9.71e+06 mL⁻¹
same,"Nucleated Cellularity PBL-LD, Mean","[1]; Table 8 comparison, 5 mg/kg s.c., @ - 15″ ([…])",8.04e+06 mL⁻¹
same,"Nucleated Cellularity PBL-LD, Mean","[1]; Table 8 comparison, 5 mg/kg s.c., @ - 30″ (0.5 h)",8.28e+06 mL⁻¹
same,"Nucleated Cellularity PBL-LD, Mean","[1]; Table 8 comparison, 5 mg/kg s.c., @ - 60″ (1 h)",7.34e+06 mL⁻¹
same,Peak increase of BFU-E over control (saline injection),[1]; [21],2.49-2.54 fold
same,Peak increase of CFU-GEMM over control (saline injection),[1]; [21],2.58-2.67 fold
same,Peak increase of CFU-GM over control (saline injection),"[1]; time course, 5 mg/kg s.c., 30 min.",4.21 fold
same,Time of peak of nucleated cell mobilization,"[1]; time course, 5 mg/kg s.c., approximately",1-2 hours post-injection
same,Number of circulating progenitors,[1]; up to a dose of 5-10 mg/kg s.c.,dose-dependently increased
same,Mode of inhibition of CXCR4,[2],allosteric inhibitor
same,IC50,"[3]; CXCR3, HEK293F-CXCR3-Gαq15, IP-10/CXCL10, read-out: IC50 AMD11070",> 50 µM
same,Inhibitory effect on IP10 mediated calcium flux (CXCR3),[3],little or no inhibitory effect
same,IC50,"[4]; CCR4, HEK293F-CCR4-Gαq15, TARC/CCL17, read-out: IC50 AMD11070",> 50 µM
same,Inhibitory effect on TARC mediated calcium flux (CCR4),[4],little or no inhibitory effect
same,IC50,"[5]; CCR7, CCRF-CEM, MIP-3β/CCL19, read-out: IC50 AMD11070",> 50 µM
same,Inhibitory effect on MIP-3β mediated calcium flux (CCR7),[5],little or no inhibitory effect
same,"GEMM (CFU-GEMM), Mean","[6]; Table 7, progenitor cells per mL of blood, 1 hour post-injection, 1.5 mg/kg s.c.",53.3
same,"BFU (BFU-E), Mean","[6]; Table 7, progenitor cells per mL of blood, 1 hour post-injection, 10 mg/kg s.c.",268.1
same,"Nucleated Cellularity PBL-LD, Mean","[6]; Table 7 dose response, 1 hour post-injection, 20 mg/kg s.c.",9.62e+06 mL⁻¹
same,"BFU (BFU-E), Mean","[6]; Table 8, progenitor cells per mL of blood, 5 mg/kg s.c., @ - 30″ (0.5 h)",151.9
same,"BFU (BFU-E), Mean","[6]; Table 8, progenitor cells per mL of blood, 5 mg/kg s.c., @ - 60″ (1 h)",144.3
